Assays:
RBL-2H3 cells = assay: IgE-induced Beta-hexosaminidase secretion in RBL-2H3 cells; type: cell-based; conditions: Rattus norvegicus; RBL-2H3 cells sensitized with SPE-7, stimulated with DNP-BSA
Method: For the determination of IgE-induced Beta-hexosaminidase secretion, RBL-2H3 cells (SIBS) are seeded in 96 well plates at 4×10^4 cells per well and incubated in MEM media with 15% FBS and Glutamine ([…]) for 4 hours and sensitized with 0.5 ug/ml of SPE-7 overnight. Cells are washed 3 times with Tyrode's buffer and incubated in the presence or absence of various concentrations of the testing compound for 20 min at 37° C., 5% CO2. Cells are stimulated by adding 10 μL of DNP-BSA solution (150 ng/mL) to each well and incubating for 45 minutes at 37° C., 5% CO2. Then, 45 μL of the supernatant is taken and incubated with 100 μL of 1 mM 4-Nitrophenyl N-acetyl-β-D-glucosaminide (Sigma, Cat. No. N9376), which is diluted in 0.05 M citrate buffer (pH 4.5), for 1.5 hr at 37° C. The reactions are quenched by adding 185 μL of 0.05 M sodium carbonate buffer (pH 10.0). Plates are read at 405 nm on Multiskan (MK 3).

Syk kinase = Syk kinase (Homo sapiens, UniProt P43405); assay: SYK enzymatic assay; type: biochemical; conditions: Tyr 2 Peptide, 8 concentrations 1 μM down to 0.0003 μM
Method: Syk kinase assay are performed in vitro using Kit-Tyr 2 Peptide (Invitrogen, Cat. No. PV3191) and in a 384-well assay plate. […] The 384-well assay plate (Corning, Cat. No. 3575) is mixed and incubated at room temperature for 1 hour. 10 μL of the Development Solution (prepared by diluting Development Reagent A (Cat. No. PV3297) to 1/32 with Development Buffer (Cat. No. PV3127)) is then added to each well, mixed and incubated at room temperature for another 1 hour. The reactions are then stopped by adding 10 μL of the Stop Reagent (Invitrogen, Cat. No. PV3094), and the plate is read with Wallac 1420 VICTOR^3 Multilabel Counter (PerkinElmer™) at 445 nm and 520 nm fluorescence. All compounds are tested at 8 concentrations (1 μM down to 0.0003 μM) using a 1:3 serial dilution scheme.

Flt3 kinase = target: T1, Flt3 kinase (Homo sapiens, UniProt P36888); assay: Z-lyte kinase assay of Flt-3; type: biochemical; conditions: Z-LYTE Tyr 2 peptide; final concentrations 3 to 0.0014 μM
T1 construct: purchased Invitrogen PV3182
T1 sequence (P36888 564-993 limits assumed): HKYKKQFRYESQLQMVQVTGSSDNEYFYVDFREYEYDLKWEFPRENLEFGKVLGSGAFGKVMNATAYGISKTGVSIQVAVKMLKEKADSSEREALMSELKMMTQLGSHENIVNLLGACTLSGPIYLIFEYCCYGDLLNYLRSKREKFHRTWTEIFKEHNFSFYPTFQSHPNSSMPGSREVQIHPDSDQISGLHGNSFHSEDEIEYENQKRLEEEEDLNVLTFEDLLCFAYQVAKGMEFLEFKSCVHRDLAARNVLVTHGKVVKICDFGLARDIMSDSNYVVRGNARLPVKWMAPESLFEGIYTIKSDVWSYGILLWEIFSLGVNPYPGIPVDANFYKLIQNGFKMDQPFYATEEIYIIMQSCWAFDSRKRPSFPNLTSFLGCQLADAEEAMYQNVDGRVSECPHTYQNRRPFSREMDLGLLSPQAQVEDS
Method: Z-lyte kinase assay of Flt-3:
Dilute 5× Kinase Buffer to 1,33× with ddH2O
Serially dilute the test compounds to 4 folds of the concentrations desired, keeping the DMSO concentration at 8%. The final concentrations were 3, 1, 0.33, 0.11, 0.037, 0.012, 0.004, 0.0014 μM, and the final concentration of DMSO was 2%,
Prepare Kinase/Peptide Mixture by diluting the kinase to 0.12 μg/mL and the Z-LYTE™ Tyr 2 peptide to 4 μM in 1.33× Kinase Buffer. Mix gently by pipetting. 4) Phcspho-peptide Solution (PP solution)
Add 0.4 μL of Z-LYTE™ Tyr 2 Phospho-peptide to 99.6 μL of 1.33× Kinase Buffer.
Prepare ATP Solution by diluting the 10 mM of ATP in 1.33× Kinase Buffer to 1.88 mM.
Dilute Development Reagent A with Development Buffer as 1:64.
1) Kinase reaction (10 μL of Volume) • a. Add 2.5 μL of 4× test Cpds to each well except C1, C2, C3 wells
Add 2.5 μL of 8% DMSO to C1, C2, C3 wells • b. Put the 384-plate on ice • c. Add 5 μL of P/K mixture to each test Cpd wells and C1, C2 wells • d. Add 5 μL of PP Solution to C3 well • e. Add 2.5 μL of 1,33× kinase buffer to C1 and C3 wells • f. Add 2.5 μL of 4×ATP Solution to each test Cpd wells and C2 well, respectively.
Shake the plate for 30 Sec and centrifuge (1500 rpm, 1 min) • g. Seal the plate to protect from the light and incubate the plate for 1 hour at RT (25-30° C.) 2) Development reaction • a. Add 5 μL of the Development solution to all wells • b. Shake the plate for 30 Sec and centrifuge (1500 rpm, 1 min) • c. Seal the plate to protect from the light and incubate the plate for 1 hour at RT (25-30° C.) 3) Stop and read • a. Add 5 μL of the Stop reagent to all wells • b. Shake the plate for 30 Sec and centrifuge (1500 rpm, 1 min) • c. Measure the value of Coumarin (Ex400 nm, Em445 nm) and fluorescein (Ex400 nm, Em520 nm), respectively. 4. Data analysis
Emission Ratio (ER) Coumarin Emission (445 nm)/Fluorescein Emission (520 nm)
inhibition ratio (IR)=1−% Photest Cpd/% PhoC2%
IC50 Value: determined with add-in software for Microsoft Excel, XLfit™ (version 2.0) from ID Business Solutions (Guildford: UK)

| SMILES | IC50 (Syk kinase) [nM] | IC50 (Flt3 kinase) [nM] | IC50 (RBL-2H3 cells) [nM] |
| --- | --- | --- | --- |
| O=C(C(F)F)N1CCO[C@H](COc2nc(-c3ccc(N4CCOCC4)c(F)c3)cc3nccnc23)C1 [Compound 15] | 1 to 100 | – | 100 to 1000 |
| CN(C)c1ccc(-c2cc3nccnc3c(OC[C@@H]3CN(S(=O)(=O)C4CC4)CCO3)n2)cc1 [Compound 90] | – | > 3000 | 1 to 100 |
| CN(C)c1ccc(-c2cc3nccnc3c(OC[C@@H]3CN(C(=O)[C@H]4CCOC4)CCO3)n2)cc1 [Compound 95] | – | 2820 | 1 to 100 |
| CN(C)c1ccc(-c2cc3nccnc3c(OC[C@@H]3CN(C(=O)Cc4c[nH]cn4)CCO3)n2)cc1 [Compound 84] | – | – | 100 to 1000 |
| CN(C)c1ccc(-c2cc3nccnc3c(OC[C@@H]3CN(C(=O)C4CCCC4)CCO3)n2)cc1 [Compound 98] | – | – | 100 to 1000 |
| CCN(CC)c1ccc(-c2cc3nccnc3c(OC[C@@H]3CN(S(C)(=O)=O)CCO3)n2)cc1 [Compound 119] | – | – | 1 to 100 |
| CS(=O)(=O)N1CCO[C@H](COc2nc(-c3ccc(N4CCOCC4)cc3)cc3nccnc23)C1 [Compound 12] | – | – | 1 to 100 |
| CS(=O)(=O)N1CCO[C@H](COc2nc(-c3ccc(N4CCCCC4)cc3)cc3nccnc23)C1 [Compound 21] | – | – | 1 to 100 |
| NS(=O)(=O)N1CCO[C@H](COc2nc(-c3ccc(N4CCCCC4)cc3)cc3nccnc23)C1 [Compound 28] | – | – | 100 to 1000 |
| NS(=O)(=O)N1CCO[C@H](COc2nc(-c3ccc(N4CCCC4)cc3)cc3nccnc23)C1 [Compound 30] | – | – | 100 to 1000 |
| O=C(C(F)F)N1CCO[C@H](COc2nc(-c3ccc(N4CCOCC4)cc3)cc3nccnc23)C1 [Compound 61] | – | – | 1 to 100 |
| CN(C)c1ccc(-c2cc3nccnc3c(OC[C@@H]3CN(C(=O)[C@H]4CC[C@H](O)CC4)CCO3)n2)cc1 [Compound 74] | – | – | 100 to 1000 |
| CNC(=O)COc1ccc(-c2cc3nccnc3c(OC[C@@H]3CN(S(C)(=O)=O)CCO3)n2)cc1 [Compound 129] | – | – | 100 to 1000 |
| CNc1ccc(-c2cc3nccnc3c(O[C@@H]3CCOC3)n2)cc1 [Compound 133] | – | – | 1 to 100 |
| CN(C)c1ccc(-c2cc3nccnc3c(OC[C@@H]3CN(C(=O)CC#N)CCO3)n2)cc1 [Compound 76] | – | – | 1 to 100 |
| CN(C)CCS(=O)(=O)N1CCO[C@H](COc2nc(-c3ccc(N4CCOCC4)cc3)cc3nccnc23)C1 [Compound 65] | – | – | 100 to 1000 |

Now from value to compound, other results behind:

| IC50 (Syk kinase) [nM] | IC50 (Flt3 kinase) [nM] | SMILES | IC50 (RBL-2H3 cells) [nM] |
| --- | --- | --- | --- |
| 1 to 100 | – | CC(C)S(=O)(=O)N1CCO[C@H](COc2nc(-c3ccc(N(C)C)cc3)cc3nccnc23)C1 [Compound 89] | 100 to 1000 |
| – | > 3000 | CN(C)c1ccc(-c2cc3nccnc3c(OC[C@@H]3CN(C(=O)C(F)F)CCO3)n2)cc1 [Compound 100] | 1 to 100 |
| – | > 3000 | CN(C)c1ccc(-c2cc3nccnc3c(OC[C@@H]3CN(C(=O)C4CC4)CCO3)n2)cc1 [Compound 69] | 1 to 100 |
| 1 to 100 | – | CN(C)c1ccc(-c2cc3nccnc3c(OC[C@@H]3CN(C(=O)CC4CC4)CCO3)n2)cc1 [Compound 70] | 100 to 1000 |
| – | 2520 | CC(=O)N1CCO[C@H](COc2nc(-c3ccc(N(C)C)cc3)cc3nccnc23)C1 [Compound 67] | 1 to 100 |
| 1 to 100 | – | O=C(C(F)F)N1CCO[C@H](COc2nc(-c3ccc(C4CCOCC4)cc3)cc3nccnc23)C1 [Compound 9] | 100 to 1000 |
| – | > 3000 | CN(C)c1ccc(-c2cc3nccnc3c(OC[C@@H]3CN(C(=O)C(F)F)CCO3)n2)cc1F [Compound 32] | 1 to 100 |
| 1 to 100 | – | CN(C)c1ccc(-c2cc3nccnc3c(OC[C@@H]3CN(C(=O)[C@H]4CC[C@H](O)CC4)CCO3)n2)cc1 [Compound 75] | – |
| – | 2010 | CN(C)c1ccc(-c2cc3nccnc3c(OC[C@@H]3CN(S(C)(=O)=O)CCO3)n2)cc1 [Compound 94] | 1 to 100 |
| 1 to 100 | – | CS(=O)(=O)N1CCO[C@H](COc2nc(-c3ccc4c(c3)OCCO4)cc3nccnc23)C1 [Compound 109] | 100 to 1000 |

Reference: patent US20150307491A1, “SUBSTITUTED PYRIDOPYRAZINES AS SYK INHIBITORS” (HUTCHISON MEDIPHARMA LIMITED, priority 2012, published 2015)
